Where two headings read alike, the source gives them in different places.
Key:
[1] = biological target: T1, GST-tagged human ROCK2 catalytic domain 1-553 (Homo sapiens, UniProt O75116); experiment: Isolated Enzyme Assay, ROCK2 (LANCE Ultra ULight-CREBtide FRET); type: biochemical; settings: 30 μM highest concentration tested, read-out: Results from Isolated Enzyme Assay IC50 (μM) ROCK2
T1 construct: GST-tagged human ROCK2 catalytic domain 1-553 from Carna Biosciences (Cat #01-110); purchased Carna Biosciences 01-110; host or cells: baculovirus expression system
T1 sequence (O75116 1-553): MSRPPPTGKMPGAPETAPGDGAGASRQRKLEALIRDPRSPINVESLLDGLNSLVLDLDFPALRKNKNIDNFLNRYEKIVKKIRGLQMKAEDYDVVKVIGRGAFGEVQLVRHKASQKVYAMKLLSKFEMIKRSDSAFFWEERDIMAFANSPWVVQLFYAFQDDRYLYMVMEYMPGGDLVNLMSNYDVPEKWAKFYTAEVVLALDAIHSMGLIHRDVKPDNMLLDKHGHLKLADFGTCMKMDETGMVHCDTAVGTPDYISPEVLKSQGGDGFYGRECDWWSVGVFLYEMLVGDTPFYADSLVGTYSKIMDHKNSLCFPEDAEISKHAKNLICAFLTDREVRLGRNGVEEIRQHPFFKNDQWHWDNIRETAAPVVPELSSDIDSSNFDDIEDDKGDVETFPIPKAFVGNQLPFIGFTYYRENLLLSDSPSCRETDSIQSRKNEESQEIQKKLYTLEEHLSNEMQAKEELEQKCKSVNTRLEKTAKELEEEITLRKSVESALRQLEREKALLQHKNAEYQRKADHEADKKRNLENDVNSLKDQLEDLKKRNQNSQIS
Method: (§1) Exemplary compounds were tested for ability to inhibit Rho-associated protein kinase isoform 1 (ROCK1) and Rho-associated protein kinase isoform 2 (ROCK2). Assay procedures and results are described below.
(§2) Part I—Procedure for Determining ROCK Inhibition Ability of Test Compounds Using an Isolated Enzyme Assay
(§3) Protein constructs were purified from a baculovirus expression system. The peptide substrate was fluorescent LANCE® Ultra ULight-CREBtide: […] (PerkinElmer, # TRF0107-D). Kinase reactions were carried out in a 10 μL volume in 384-well plates: 50 nM ULight-CREBtide substrate, 2 nM constitutively active ROCK1 or ROCK2 kinase, and test compound in DMSO (or DMSO only for controls) were diluted into assay buffer containing 50 mM Tris-HCl (pH=7.5), 10 mM MgCl2, 1 mM EGTA, 0.01% Tween-20, and 2 mM DTT such that the final concentration of DMSO was 0.5%. After a 90 minute incubation at room temperature on a shaker table, the kinase reaction was stopped by addition of 10 mM EDTA, and phosphorylation of the substrate was detected by adding 1 nM LANCE® Ultra Europium-anti-phospho-CREB (ser133) antibody (PerkinElmer, # TRF0200-D) and incubating for 60 minutes on a shaker at room temperature. The fluorescence resonance energy transfer (FRET) signals were read and analyzed on an Envision™ 2103 Multilabel Reader (Perkin Elmer). The concentration of test compound required to inhibit substrate phosphorylation by 50% (the IC50) was calculated by non-linear regression using GraphPad PRIZM.

[2] = biological target: T2, GST-tagged human ROCK1 catalytic domain 1-477 (Homo sapiens, UniProt Q13464); experiment: Isolated Enzyme Assay, ROCK1 (LANCE Ultra ULight-CREBtide FRET); type: biochemical; settings: 30 μM highest concentration tested, read-out: Results from Isolated Enzyme Assay IC50 (μM) ROCK1
T2 construct: human ROCK1 catalytic domain 1-477 from Carna Biosciences (cat #01-109); purchased Carna Biosciences 01-109; host or cells: baculovirus expression system
T2 sequence (Q13464 1-477): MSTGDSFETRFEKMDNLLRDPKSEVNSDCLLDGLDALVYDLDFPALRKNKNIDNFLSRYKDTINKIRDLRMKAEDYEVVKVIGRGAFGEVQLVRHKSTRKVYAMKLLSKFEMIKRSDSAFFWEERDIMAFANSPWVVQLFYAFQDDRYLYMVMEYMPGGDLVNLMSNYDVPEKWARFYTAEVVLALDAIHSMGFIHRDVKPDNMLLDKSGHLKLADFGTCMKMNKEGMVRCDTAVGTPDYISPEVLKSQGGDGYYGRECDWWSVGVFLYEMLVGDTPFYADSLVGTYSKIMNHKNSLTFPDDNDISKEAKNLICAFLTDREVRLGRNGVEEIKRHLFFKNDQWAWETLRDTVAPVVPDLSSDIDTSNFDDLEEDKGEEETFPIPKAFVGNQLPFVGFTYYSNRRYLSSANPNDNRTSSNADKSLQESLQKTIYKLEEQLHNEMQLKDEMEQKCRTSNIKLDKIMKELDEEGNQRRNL
Method: as §1, §2, §3

[3] = biological target: T3, ROCK2 (Homo sapiens, UniProt O75116); experiment: Cell-Based Assay, ROCK2 (HAP1 knockout cells, phospho-MYPT1 Thr853 ELISA); settings: read-out: Results from Cell-Based Assay IC50 (μM) ROCK2
T3 construct: endogenous in cells; host or cells: HAP1 knockout cells
T3 sequence (O75116 whole entry): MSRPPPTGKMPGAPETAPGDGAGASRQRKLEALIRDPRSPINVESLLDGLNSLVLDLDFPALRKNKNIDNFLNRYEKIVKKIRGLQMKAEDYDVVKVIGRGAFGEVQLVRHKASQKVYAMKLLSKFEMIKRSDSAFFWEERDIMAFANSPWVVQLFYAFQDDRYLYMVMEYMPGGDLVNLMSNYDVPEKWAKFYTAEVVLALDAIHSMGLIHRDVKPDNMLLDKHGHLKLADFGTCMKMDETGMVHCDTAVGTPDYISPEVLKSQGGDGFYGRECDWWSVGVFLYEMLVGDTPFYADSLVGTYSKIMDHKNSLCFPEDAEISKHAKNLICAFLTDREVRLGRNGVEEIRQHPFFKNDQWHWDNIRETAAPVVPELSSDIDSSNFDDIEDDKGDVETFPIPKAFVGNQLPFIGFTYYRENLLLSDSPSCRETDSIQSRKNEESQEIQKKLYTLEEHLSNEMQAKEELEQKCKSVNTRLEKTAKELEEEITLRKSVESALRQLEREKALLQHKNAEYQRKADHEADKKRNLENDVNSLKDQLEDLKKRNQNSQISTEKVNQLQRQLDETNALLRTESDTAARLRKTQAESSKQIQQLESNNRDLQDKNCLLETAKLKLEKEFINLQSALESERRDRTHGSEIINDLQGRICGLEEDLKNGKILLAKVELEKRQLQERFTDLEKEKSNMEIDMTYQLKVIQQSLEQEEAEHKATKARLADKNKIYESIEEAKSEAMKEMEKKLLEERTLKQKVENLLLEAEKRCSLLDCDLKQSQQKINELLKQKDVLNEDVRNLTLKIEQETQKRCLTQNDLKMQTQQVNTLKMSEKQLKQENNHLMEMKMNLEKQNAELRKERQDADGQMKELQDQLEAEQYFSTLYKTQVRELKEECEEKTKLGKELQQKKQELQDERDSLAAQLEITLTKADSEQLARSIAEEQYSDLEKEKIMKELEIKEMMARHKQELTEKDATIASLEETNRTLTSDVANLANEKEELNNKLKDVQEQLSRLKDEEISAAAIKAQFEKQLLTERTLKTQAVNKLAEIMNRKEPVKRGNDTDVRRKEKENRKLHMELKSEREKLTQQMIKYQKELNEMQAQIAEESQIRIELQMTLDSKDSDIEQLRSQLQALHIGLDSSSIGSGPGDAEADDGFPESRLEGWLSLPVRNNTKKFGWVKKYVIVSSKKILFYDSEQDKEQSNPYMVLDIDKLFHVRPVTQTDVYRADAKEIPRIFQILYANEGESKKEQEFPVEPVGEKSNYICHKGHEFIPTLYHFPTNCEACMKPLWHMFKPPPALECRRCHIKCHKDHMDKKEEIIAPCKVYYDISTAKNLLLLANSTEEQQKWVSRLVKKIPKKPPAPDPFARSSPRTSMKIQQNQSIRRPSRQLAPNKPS
Method: Part II—Procedure for Determining ROCK Inhibition Ability of Test Compounds Using a Cell-Base Assay
The Cell-Based Assay for determining ROCK inhibition ability of test compounds utilized a genetically modified HAP1 cell line engineered to eliminate expression of either ROCK1 or ROCK2. In the procedure, HAP1 knockout cells are grown in Iscove's Modified Dulbecco's Medium that is additionally supplemented with 10% fetal bovine and 1x antibiotic-antimycotic mixture. Cells are plated in 96 well tissue culture plates at 1×10^5 cells/well (100 μL, of cells at 1×10^6/mL). Test compounds are solubilized in DMSO and diluted into the same media used to grow the cells. A 100 μL, aliquot of each compound dilution in media is added to each well containing the HAP1 cells and incubated at 37° C. for 30 minutes. Following compound incubation, the cells are pelleted by centrifugation at 1800 rpm for 5 minutes at 4° C. Media is removed from the cell pellet and the cells lysed and de-salted. An 80 μL, aliquot of each cell lysate is added to a single well of a 96-well high binding ELISA plate which has been pre-coated with a MYPT1 capture antibody and incubated at 4° C. overnight. The following day the ELISA plate is washed 4× with 0.05% Tween-20 in PBS. After washing, an anti-phospho-MYPT1 (Thr853) antibody is added and allowed to bind for 1 hour at room temperature. The wash step is repeated, and then an anti-rabbit HRP detection antibody is added and allowed to incubate at room temperature for 1 hour. The wash step is then repeated and 100 μL/well 1-Step™ Ultra TMB substrate is added to the ELISA plate and allowed to develop for approximately 5 minutes. The reaction is stopped by addition of H2SO4. Absorbance is read at 450 OD. Data is analyzed using GraphPad Prism software to calculate the 50% inhibitory concentration of test compound (IC50).

[4] = phospho-MYPT1, 30 μM highest concentration tested

Row | Structure (SMILES) | IC50 ([1]; isolated enzyme assay) [µM] | IC50 ([2]; isolated enzyme assay) [µM] | other results
1 | N#Cc1c(Nc2nc(-c3cccc([N+](=O)[O-])c3)ns2)ccc2[nH]ncc12 [IV-100] | > 30 | > 30 | –
2 | Cn1cc(CC(=O)Nc2cccc(-c3nsc(Nc4ccc5[nH]ncc5c4Cl)n3)c2)cn1 [Compound A-20] | – | – | IC50 [3, 4]: < 1 µM; IC50 ([1]; isolated enzyme): < 1 µM; IC50 ([2]; isolated enzyme): < 1 µM
3 | O=C(Nc1cccc(-c2nsc(Nc3ccc4[nH]ncc4c3Cl)n2)c1)c1cncs1 [Compound A-16] | – | – | IC50 [3, 4]: < 1 µM; IC50 ([1]; isolated enzyme): < 1 µM; IC50 ([2]; isolated enzyme): < 1 µM
4 | O=C(Nc1cc(-c2nsc(Nc3ccc4[nH]ncc4c3Cl)n2)ccn1)c1cocn1 [IV-96] | > 30 | > 30 | –
5 | COc1cccc(C(=O)Nc2cncc(-c3nsc(Nc4ccc5[nH]ncc5c4Cl)n3)c2)c1 [IV-101] | > 30 | > 30 | IC50 ([3]; numeric bound): > 10 µM
6 | O=C(Nc1cccc(-c2nsc(Nc3ccc4[nH]ncc4c3Cl)n2)c1)c1cnc[nH]1 [Compound A-14] | – | – | IC50 [3, 4]: < 1 µM; IC50 ([1]; isolated enzyme): < 1 µM; IC50 ([2]; isolated enzyme): < 1 µM
7 | O=C(Cn1cc(Cl)cn1)Nc1cccc(-c2nsc(Nc3ccc4[nH]ncc4c3Cl)n2)c1 [IV-104] | > 30 | > 30 | –
8 | O=C(Nc1cc(-c2nsc(Nc3ccc4[nH]ncc4c3Cl)n2)ccn1)c1ccccc1F [IV-60] | > 30 | > 30 | IC50 ([3]; class symbols): 1 to 15 µM
9 | Cc1nn(C(F)F)cc1S(=O)(=O)Nc1cccc(-c2nsc(Nc3ccc4[nH]ncc4c3Cl)n2)c1 [IV-98] | > 30 | > 30 | –
10 | CN(C)C(=O)c1cccc(-c2nsc(Nc3ccc4[nH]ncc4c3Cl)n2)c1 [IV-87] | 1 to 15 | > 30 | –
11 | Cn1cc(-c2nsc(Nc3ccc4[nH]ncc4c3Cl)n2)cc(N2CCCC2=O)c1=O [IV-11] | 1 to 15 | > 30 | –
12 | Cc1n[nH]c2ccc(Nc3nc(-c4ccnc(NC(=O)c5ccnn5C)c4)ns3)cc12 [Compound A-5] | – | – | IC50 ([1]; isolated enzyme): > 30 µM; IC50 ([2]; isolated enzyme): > 30 µM
13 | Cn1nccc1C(=O)Nc1cncc(-c2nsc(Nc3ccc4[nH]ncc4c3Cl)n2)c1 [Compound A-6] | – | – | IC50 ([1]; isolated enzyme): < 1 µM; IC50 ([2]; isolated enzyme): > 30 µM
14 | Cn1nccc1C(=O)NC[C@@H]1CCCN1c1nsc(Nc2ccc3[nH]ncc3c2Cl)n1 [IV-110] | 15 to 30 | > 30 | –
15 | Cn1nccc1C(=O)NC[C@@H]1CCN(c2nsc(Nc3ccc4[nH]ncc4c3Cl)n2)C1 [IV-94] | > 30 | > 30 | –
16 | O=C(Nc1cccc(-c2nsc(Nc3ccc4[nH]ncc4c3)n2)c1)c1c[nH]cn1 [Compound A-1] | – | – | IC50 ([1]; isolated enzyme): < 1 µM; IC50 ([2]; isolated enzyme): 1 to 15 µM

Row | Structure (SMILES) | IC50 ([1]; isolated enzyme assay) [µM] | IC50 ([2]; isolated enzyme assay) [µM] | other results
17 | Cc1coc(-c2cccc(-c3nsc(Nc4cc5cn[nH]c5cc4F)n3)c2)n1 [IV-93] | > 30 | > 30 | –
18 | Cn1cc(-c2nsc(Nc3ccc4[nH]ncc4c3Cl)n2)cc(C(=O)O)c1=O [IV-91] | > 30 | > 30 | –
19 | O=S(=O)(Nc1cccc(-c2nsc(Nc3ccc4[nH]ncc4c3Cl)n2)c1)c1cccnc1 [IV-40] | 1 to 15 | > 30 | –
20 | O=C(c1cccc(-c2nsc(Nc3ccc4[nH]ncc4c3Cl)n2)c1)N1CCOCC1 [IV-80] | 1 to 15 | 1 to 15 | –
21 | NC[C@@H]1CCCN1c1nsc(Nc2ccc3[nH]ncc3c2Cl)n1 [IV-109] | > 30 | 15 to 30 | –
22 | O=C1CCCN1c1cc(-c2nsc(Nc3ccc4[nH]ncc4c3Cl)n2)cn2ccnc12 [IV-92] | > 30 | > 30 | –
23 | Cc1n[nH]c2ccc(Nc3nc(-c4cncc(NC(=O)c5ccnn5C)c4)ns3)cc12 [Compound A-7] | – | – | IC50 ([1]; isolated enzyme): > 30 µM; IC50 ([2]; isolated enzyme): > 30 µM
24 | Cc1n[nH]c2ccc(Nc3nc(-c4cccc(NC(=O)c5ccnn5C)c4)ns3)cc12 [Compound A-8] | – | – | IC50 ([1]; isolated enzyme): < 1 µM; IC50 ([2]; isolated enzyme): > 30 µM
25 | CN1CCN(C(=O)c2cccc(-c3nsc(Nc4ccc5[nH]ncc5c4Cl)n3)c2)CC1 [IV-85] | 1 to 15 | 1 to 15 | –
26 | CN(C)CCn1cnc2c(-c3nsc(Nc4ccc5[nH]ncc5c4Cl)n3)cccc21 [IV-67] | 1 to 15 | 1 to 15 | –
27 | Cc1c(S(=O)(=O)Nc2cccc(-c3nsc(Nc4ccc5[nH]ncc5c4Cl)n3)c2)cnn1C(F)F [IV-51] | 1 to 15 | 15 to 30 | –
28 | O=C(Nc1cccc(-c2nsc(Nc3ccc4[nH]ncc4c3)n2)c1)c1cccnc1 [Compound A-2] | – | – | IC50 ([1]; isolated enzyme): < 1 µM; IC50 ([2]; isolated enzyme): > 30 µM
29 | Cc1nc(S(=O)(=O)Nc2cccc(-c3nsc(Nc4ccc5[nH]ncc5c4Cl)n3)c2)cn1C [IV-41] | 1 to 15 | < 1 | –
30 | CS(=O)(=O)c1cccc(-c2nsc(Nc3ccc4[nH]ncc4c3Cl)n2)c1 [IV-99] | > 30 | > 30 | –
31 | O=c1c2ccccc2ncn1-c1cccc(-c2nsc(Nc3ccc4[nH]ncc4c3Cl)n2)c1 [IV-95] | > 30 | > 30 | –
32 | CP(C)(=O)c1cccc(-c2nsc(Nc3ccc4[nH]ncc4c3Cl)n2)c1 [IV-102] | > 30 | > 30 | –

The next lines start with results.

Row | IC50 ([1]; isolated enzyme assay) [µM] | IC50 ([2]; isolated enzyme assay) [µM] | Structure (SMILES) | other results
33 | < 1 | < 1 | Cc1cc(=O)n(-c2cc(-c3nsc(Nc4ccc5[nH]ncc5c4Cl)n3)ccn2)n1C [IV-23] | –
34 | < 1 | > 30 | Cc1cc(NC(=O)c2cc(C)nn2C)cc(-c2nsc(Nc3ccc4[nH]ncc4c3Cl)n2)n1 [IV-37] | –
35 | < 1 | > 30 | Cn1cc(-c2nsc(Nc3ccc4[nH]ncc4c3Cl)n2)cc(NC(=O)c2cnccn2)c1=O [IV-1] | –
36 | < 1 | 1 to 15 | Cc1ncc(-c2nsc(Nc3ccc4[nH]ncc4c3Cl)n2)cc1NC(=O)c1ccnn1C [IV-69] | IC50 ([3]; numeric bound): > 10 µM
37 | < 1 | < 1 | O=C1CCCN1c1cc(-c2nsc(Nc3ccc4[nH]ncc4c3Cl)n2)ccn1 [IV-52] | –
38 | 1 to 15 | 1 to 15 | O=c1ccccn1-c1cccc(-c2nsc(Nc3ccc4[nH]ncc4c3Cl)n2)c1 [IV-53] | –
39 | 1 to 15 | 1 to 15 | O=C(c1cccc(-c2nsc(Nc3ccc4[nH]ncc4c3Cl)n2)c1)N1CCCC1 [IV-86] | –
40 | < 1 | > 30 | O=C(Nc1cc(-c2nsc(Nc3ccc4[nH]ncc4c3Cl)n2)ccn1)c1cnco1 [IV-28] | IC50 ([3]; numeric bound): > 10 µM
41 | 1 to 15 | > 30 | Cc1nc2ccccc2c(=O)n1-c1cccc(-c2nsc(Nc3ccc4[nH]ncc4c3Cl)n2)c1 [IV-111] | –
42 | < 1 | 1 to 15 | CS(=O)(=O)Nc1cccc(-c2nsc(Nc3ccc4[nH]ncc4c3Cl)n2)c1 [IV-16] | –
43 | < 1 | > 30 | O=C(Nc1cncc(-c2nsc(Nc3ccc4[nH]ncc4c3Cl)n2)c1)c1cncs1 [IV-18] | –
44 | < 1 | > 30 | Cn1cc(-c2nsc(Nc3ccc4[nH]ncc4c3Cl)n2)cc(N2CCOC2=O)c1=O [IV-4] | –
45 | < 1 | 1 to 15 | CC(C)N1CCN(c2cc(-c3nsc(Nc4ccc5[nH]ncc5c4Cl)n3)cn(C)c2=O)C1=O [IV-3] | –
46 | < 1 | > 30 | O=C(Nc1cncc(-c2nsc(Nc3ccc4[nH]ncc4c3Cl)n2)c1)c1cocn1 [IV-36] | –
47 | < 1 | > 30 | O=C(c1cccc(-c2nsc(Nc3ccc4[nH]ncc4c3Cl)n2)c1)N1CCc2ccccc2C1 [IV-84] | –

Reference: patent publication US10556898B2, “Indazolyl-1,2,4-thiadiazolamines and related compounds for inhibition of Rho-associated protein kinase and the treatment of disease” (Lycera Corporation, priority 2016, dated 2020)
